US20240238242A1, “EGCG buccal tablet and use thereof” (priority 2023, published 2024)
Values joined by “and” are separate entries in the source; they are usually repeats but may differ in a detail not shown here. Equal entries are not always repeated.

Assays:
[1] = test system: Coronavirus (hCoV-229E); assay: Inactivation efficiency against coronavirus hCoV-229E strain (residual TCID50 on Huh-7 cells); format: cell-based; settings: for CPE test (virus replication in cell wells): wells 1-10; for average inactivation efficiency against virus / inactivation efficiency against the virus: hCoV-229E virus; for average inactivation efficiency against virus: three experiments; for inactivation efficiency against the virus: single experiment
[2] = test system: SARS-CoV-2 Omicron BA.2; set-up: species or system BALB/c mice; settings: mouse, in vivo
[3] = test system: SARS-CoV-2/C57MA14; set-up: species or system BALB/c mice; settings: mouse, in vivo

In the case of `O=C(O[C@@H]1Cc2c(O)cc(O)cc2O[C@@H]1c1cc(O)c(O)c(O)c1)c1cc(O)c(O)c(O)c1` [EGCG, Epigallocatechin gallate], the “CPE test (virus replication in the cell wells)” value ([1]; 1 mM EGCG + virus, co-incubated 5 minute, second experiment, dilution factor 10^4, wells 1-10) was “+”, the “CPE test (virus replication in the cell wells)” value ([1]; 1 mM EGCG + virus, co-incubated 5 minute, second experiment, dilution factor 10^5, wells 1-10) was “+ and −” and the “CPE test (virus replication in the cell wells)” value ([1]; 1 mM EGCG + virus, co-incubated 5 minute, second experiment, dilution factor 10^6, wells 1-10) was “−”. For the same molecule, the “CPE test (virus replication in the cell wells)” value ([1]; 1 mM EGCG + virus, co-incubated 5 minute, second experiment, dilution factor 10^7, wells 1-10) was “−”, the “CPE test (virus replication in the cell wells)” value ([1]; 1 mM EGCG + virus, co-incubated 5 minute, second experiment, dilution factor 10^8, wells 1-10) was “−” and the “CPE test (virus replication in the cell wells)” value ([1]; 1 mM EGCG + virus, co-incubated 5 minutes, dilution factor 10^1, wells 1-10, third experiment) was “+”. The “CPE test (virus replication in the cell wells)” value ([1]; 1 mM EGCG + virus, co-incubated 5 minutes, dilution factor 10^2, wells 1-10, third experiment) was “+”, the “CPE test (virus replication in the cell wells)” value ([1]; 1 mM EGCG + virus, co-incubated 5 minutes, dilution factor 10^3, wells 1-10, third experiment) was “+” and the “CPE test (virus replication in the cell wells)” value ([1]; 1 mM EGCG + virus, co-incubated 5 minutes, dilution factor 10^4, wells 1-10, third experiment) was “+”. For the same molecule, the “CPE test (virus replication in the cell wells)” value ([1]; 1 mM EGCG + virus, co-incubated 5 minutes, dilution factor 10^5, wells 1-10, third experiment) was “+ and −”, the “CPE test (virus replication in the cell wells)” value ([1]; 1 mM EGCG + virus, co-incubated 5 minutes, dilution factor 10^6, wells 1-10, third experiment) was “− and +” and the “CPE test (virus replication in the cell wells)” value ([1]; 1 mM EGCG + virus, co-incubated 5 minutes, dilution factor 10^7, wells 1-10, third experiment) was “−”. The “CPE test (virus replication in the cell wells)” value ([1]; 1 mM EGCG + virus, co-incubated 5 minutes, dilution factor 10^8, wells 1-10, third experiment) was “−”, the “CPE test (virus replication in cell wells)” value ([1]; 1 mM EGCG + virus, hCoV-229E co-incubated 1 minute, second experiment, dilution factor 10^1) was “+” and the “CPE test (virus replication in cell wells)” value ([1]; 1 mM EGCG + virus, hCoV-229E co-incubated 1 minute, second experiment, dilution factor 10^2) was “+”. For the same molecule, the “CPE test (virus replication in cell wells)” value ([1]; 1 mM EGCG + virus, hCoV-229E co-incubated 1 minute, second experiment, dilution factor 10^3) was “+”, the “CPE test (virus replication in cell wells)” value ([1]; 1 mM EGCG + virus, hCoV-229E co-incubated 1 minute, second experiment, dilution factor 10^4) was “+ and −” and the “CPE test (virus replication in cell wells)” value ([1]; 1 mM EGCG + virus, hCoV-229E co-incubated 1 minute, second experiment, dilution factor 10^5) was “− and +”. The “CPE test (virus replication in cell wells)” value ([1]; 1 mM EGCG + virus, hCoV-229E co-incubated 1 minute, second experiment, dilution factor 10^6) was “−”, the “CPE test (virus replication in cell wells)” value ([1]; 1 mM EGCG + virus, hCoV-229E co-incubated 1 minute, second experiment, dilution factor 10^7) was “−” and the “CPE test (virus replication in cell wells)” value ([1]; 1 mM EGCG + virus, hCoV-229E co-incubated 1 minute, second experiment, dilution factor 10^8) was “−”. For the same molecule, the “CPE test (virus replication in cell wells)” value ([1]; 1 mM EGCG + virus, hCoV-229E co-incubated 1 minute, third experiment, dilution factor 10^1) was “+”, the “CPE test (virus replication in cell wells)” value ([1]; 1 mM EGCG + virus, hCoV-229E co-incubated 1 minute, third experiment, dilution factor 10^2) was “+” and the “CPE test (virus replication in cell wells)” value ([1]; 1 mM EGCG + virus, hCoV-229E co-incubated 1 minute, third experiment, dilution factor 10^3) was “+”. The “CPE test (virus replication in cell wells)” value ([1]; 1 mM EGCG + virus, hCoV-229E co-incubated 1 minute, third experiment, dilution factor 10^4) was “+”, the “CPE test (virus replication in cell wells)” value ([1]; 1 mM EGCG + virus, hCoV-229E co-incubated 1 minute, third experiment, dilution factor 10^5) was “+ and −” and the “CPE test (virus replication in cell wells)” value ([1]; 1 mM EGCG + virus, hCoV-229E co-incubated 1 minute, third experiment, dilution factor 10^6) was “− and +”. For the same molecule, the “CPE test (virus replication in cell wells)” value ([1]; 1 mM EGCG + virus, hCoV-229E co-incubated 1 minute, third experiment, dilution factor 10^7) was “−”, the “CPE test (virus replication in cell wells)” value ([1]; 1 mM EGCG + virus, hCoV-229E co-incubated 1 minute, third experiment, dilution factor 10^8) was “−” and the “average inactivation efficiency against virus” value (“average inactivation efficiency” for short) ([1]; 1 mM EGCG, 1 minute) was 49.71%. For the same molecule, the “inactivation efficiency against the virus” value ([1]; 1 mM EGCG, 5 minutes) was 49.88% and 36.90%, the “average inactivation efficiency” value ([1]; 1 mM EGCG, 5 minutes) was 45.55% and the “CPE test (virus replication in cell wells)” value ([1]; 5 mM EGCG + hCoV-229E virus, co-incubated 1 minute, first experiment, dilution factor 10^2) was “+”. The “CPE test (virus replication in cell wells)” value ([1]; 5 mM EGCG + hCoV-229E virus, co-incubated 1 minute, first experiment, dilution factor 10^3) was “+”, the “CPE test (virus replication in cell wells)” value ([1]; 5 mM EGCG + hCoV-229E virus, co-incubated 1 minute, first experiment, dilution factor 10^4) was “+” and the “CPE test (virus replication in cell wells)” value ([1]; 5 mM EGCG + hCoV-229E virus, co-incubated 1 minute, first experiment, dilution factor 10^5) was “+ and −”. For the same molecule, the “CPE test (virus replication in cell wells)” value ([1]; 5 mM EGCG + hCoV-229E virus, co-incubated 1 minute, first experiment, dilution factor 10^6) was “−”, the “CPE test (virus replication in cell wells)” value ([1]; 5 mM EGCG + hCoV-229E virus, co-incubated 1 minute, first experiment, dilution factor 10^7) was “−” and the “CPE test (virus replication in cell wells)” value ([1]; 5 mM EGCG + hCoV-229E virus, co-incubated 1 minute, first experiment, dilution factor 10^8) was “−”. For the same molecule, the “CPE test (virus replication in the cell wells)” value ([1]; 5 mM EGCG + virus, co-incubated 5 minute, first experiment, dilution factor 10^2, wells 1-10) was “+”, the “CPE test (virus replication in the cell wells)” value ([1]; 5 mM EGCG + virus, co-incubated 5 minute, first experiment, dilution factor 10^3, wells 1-10) was “+” and the “CPE test (virus replication in the cell wells)” value ([1]; 5 mM EGCG + virus, co-incubated 5 minute, first experiment, dilution factor 10^4, wells 1-10) was “+”. The “CPE test (virus replication in the cell wells)” value ([1]; 5 mM EGCG + virus, co-incubated 5 minute, first experiment, dilution factor 10^5, wells 1-10) was “− and +”, the “CPE test (virus replication in the cell wells)” value ([1]; 5 mM EGCG + virus, co-incubated 5 minute, first experiment, dilution factor 10^6, wells 1-10) was “−” and the “CPE test (virus replication in the cell wells)” value ([1]; 5 mM EGCG + virus, co-incubated 5 minute, first experiment, dilution factor 10^7, wells 1-10) was “−”. For the same molecule, the “CPE test (virus replication in the cell wells)” value ([1]; 5 mM EGCG + virus, co-incubated 5 minute, first experiment, dilution factor 10^8, wells 1-10) was “−”, the “CPE test (virus replication in the cell wells)” value ([1]; 5 mM EGCG + virus, co-incubated 5 minute, second experiment, dilution factor 10^2, wells 1-10) was “+” and the “CPE test (virus replication in the cell wells)” value ([1]; 5 mM EGCG + virus, co-incubated 5 minute, second experiment, dilution factor 10^3, wells 1-10) was “+”. The “CPE test (virus replication in the cell wells)” value ([1]; 5 mM EGCG + virus, co-incubated 5 minute, second experiment, dilution factor 10^4, wells 1-10) was “+”, the “CPE test (virus replication in the cell wells)” value ([1]; 5 mM EGCG + virus, co-incubated 5 minute, second experiment, dilution factor 10^5, wells 1-10) was “− and +” and the “CPE test (virus replication in the cell wells)” value ([1]; 5 mM EGCG + virus, co-incubated 5 minute, second experiment, dilution factor 10^6, wells 1-10) was “− and +”. The “CPE test (virus replication in the cell wells)” value ([1]; 5 mM EGCG + virus, co-incubated 5 minute, second experiment, dilution factor 10^7, wells 1-10) was “−”, the “CPE test (virus replication in the cell wells)” value ([1]; 5 mM EGCG + virus, co-incubated 5 minute, second experiment, dilution factor 10^8, wells 1-10) was “−” and the “CPE test (virus replication in the cell wells)” value ([1]; 5 mM EGCG + virus, co-incubated 5 minutes, dilution factor 10^1, wells 1-10, third experiment) was “+”. The “CPE test (virus replication in the cell wells)” value ([1]; 5 mM EGCG + virus, co-incubated 5 minutes, dilution factor 10^2, wells 1-10, third experiment) was “+”, the “CPE test (virus replication in the cell wells)” value ([1]; 5 mM EGCG + virus, co-incubated 5 minutes, dilution factor 10^3, wells 1-10, third experiment) was “+” and the “CPE test (virus replication in the cell wells)” value ([1]; 5 mM EGCG + virus, co-incubated 5 minutes, dilution factor 10^4, wells 1-10, third experiment) was “+”. For the same molecule, the “CPE test (virus replication in the cell wells)” value ([1]; 5 mM EGCG + virus, co-incubated 5 minutes, dilution factor 10^5, wells 1-10, third experiment) was “+ and −”, the “CPE test (virus replication in the cell wells)” value ([1]; 5 mM EGCG + virus, co-incubated 5 minutes, dilution factor 10^6, wells 1-10, third experiment) was “− and +” and the “CPE test (virus replication in the cell wells)” value ([1]; 5 mM EGCG + virus, co-incubated 5 minutes, dilution factor 10^7, wells 1-10, third experiment) was “−”. The “CPE test (virus replication in the cell wells)” value ([1]; 5 mM EGCG + virus, co-incubated 5 minutes, dilution factor 10^8, wells 1-10, third experiment) was “−”, the “CPE test (virus replication in cell wells)” value ([1]; 5 mM EGCG + virus, hCoV-229E co-incubated 1 minute, second experiment, dilution factor 10^2) was “+” and the “CPE test (virus replication in cell wells)” value ([1]; 5 mM EGCG + virus, hCoV-229E co-incubated 1 minute, second experiment, dilution factor 10^3) was “+ and −”. For the same molecule, the “CPE test (virus replication in cell wells)” value ([1]; 5 mM EGCG + virus, hCoV-229E co-incubated 1 minute, second experiment, dilution factor 10^4) was “+”, the “CPE test (virus replication in cell wells)” value ([1]; 5 mM EGCG + virus, hCoV-229E co-incubated 1 minute, second experiment, dilution factor 10^5) was “− and +” and the “CPE test (virus replication in cell wells)” value ([1]; 5 mM EGCG + virus, hCoV-229E co-incubated 1 minute, second experiment, dilution factor 10^6) was “−”. For the same molecule, the “CPE test (virus replication in cell wells)” value ([1]; 5 mM EGCG + virus, hCoV-229E co-incubated 1 minute, second experiment, dilution factor 10^7) was “−”, the “CPE test (virus replication in cell wells)” value ([1]; 5 mM EGCG + virus, hCoV-229E co-incubated 1 minute, second experiment, dilution factor 10^8) was “−” and the “CPE test (virus replication in cell wells)” value ([1]; 5 mM EGCG + virus, hCoV-229E co-incubated 1 minute, third experiment, dilution factor 10^2) was “+”. The “CPE test (virus replication in cell wells)” value ([1]; 5 mM EGCG + virus, hCoV-229E co-incubated 1 minute, third experiment, dilution factor 10^3) was “+”, the “CPE test (virus replication in cell wells)” value ([1]; 5 mM EGCG + virus, hCoV-229E co-incubated 1 minute, third experiment, dilution factor 10^4) was “+” and the “CPE test (virus replication in cell wells)” value ([1]; 5 mM EGCG + virus, hCoV-229E co-incubated 1 minute, third experiment, dilution factor 10^5) was “+ and −”. For the same molecule, the “CPE test (virus replication in cell wells)” value ([1]; 5 mM EGCG + virus, hCoV-229E co-incubated 1 minute, third experiment, dilution factor 10^6) was “− and +”, the “CPE test (virus replication in cell wells)” value ([1]; 5 mM EGCG + virus, hCoV-229E co-incubated 1 minute, third experiment, dilution factor 10^7) was “−” and the “CPE test (virus replication in cell wells)” value ([1]; 5 mM EGCG + virus, hCoV-229E co-incubated 1 minute, third experiment, dilution factor 10^8) was “−”. The “inactivation efficiency against the virus” value ([1]; 5 mM EGCG, 1 minute) was 68.38% and 49.88%, the “average inactivation efficiency” value ([1]; 5 mM EGCG, 1 minute) was 62.21% and the “inactivation efficiency against the virus” value ([1]; 5 mM EGCG, 5 minutes) was 60.19% and 36.90% and 49.88%. The “average inactivation efficiency” value ([1]; 5 mM EGCG, 5 minutes) was 48.99%, the “nucleic acid loads of SARS-CoV-2 Omicron BA.2 in lungs and turbinates” value [2] was “significantly reduced” and the “mice protected from death caused by lethal dose infection” value [3] was 60%. The “viral nucleic acid loads in lungs and turbinates” value [3] was “significantly reduce”.
